Source: patent US20110105477A1, “COMPOSITIONS AND METHODS RELATING TO HIV PROTEASE INHIBITION” (The Regents of the University of Michigan, priority 2007, published 2011)

target: HIV-1 protease (Human immunodeficiency virus type 1 group M subtype B, UniProt P04585); assay: HIV protease inhibition assay; format: biochemical; conditions: not given

In the case of `CC1=CC(C)(C)Nc2ccc(OC(=O)c3ccccc3Br)cc21` [Compound 3], the “activity in HIVp inhibition assay (in words)” value is reported as “active”.

same assay, conditions: HIVp inhibition

With `COc1ccc(C(=O)Oc2ccc3c(c2)C(C)=CC(C)(C)N3)cc1` [Compound 2] the IC50 was 18 µM.

same assay, conditions: remaining HIV-1 protease activity at 150 μM compound

First: CC1=CC(C)(C)Nc2ccc(OC(=O)c3ccc4c(c3)OCO4)cc21
Second: CC1=CC(C)(C)Nc2ccc(OC(=O)c3cccc([N+](=O)[O-])c3)cc21
The “Remain Activity” value of the first is lower: 63.58% for the first, 73.01% for the second.

Compared with `Cc1[nH]c2nc(NCc3cccc(Br)c3)nn2c(=O)c1Cl`, `Cc1cc(=O)n2nc(NCc3cccs3)nc2[nH]1` is lower in “Remain Activity” value: 71.2% for the first, 63.59% for the second.

First: O=C1c2cccc([N+](=O)[O-])c2C(=O)N1c1ccc2[nH]c(=S)sc2c1
Second: O=C1[C@H]2CCCC[C@H]2C(=O)N1c1ccc2[nH]c(=S)sc2c1
The “Remain Activity” value of the first is lower: 36.93% for the first, 51.9% for the second.

Going from `CC1=CC(C)(C)Nc2ccc(OC(=O)c3cccs3)cc21` to `CC1=CC(C)(C)Nc2ccc(OC(=O)c3ccco3)cc21`, the “Remain Activity” value rises from 64.08% to 69.67%.

Going from `Cc1cc(=O)n2nc(N3C(=O)[C@H]4CCCC[C@H]4C3=O)nc2[nH]1` to `O=c1c2c([nH]c3nc(COc4ccccc4)nn13)CCC2`, the “Remain Activity” value falls from 67.49% to 57.77%.

Going from `CC1=CC(C)(C)Nc2ccc(OC(=O)c3cccc4ccccc34)cc21` to `CC1=CC(C)(C)Nc2ccc(OC(=O)c3ccccc3Br)cc21` [drawing 433], the “Remain Activity” value falls from 65.34% to 65.33%.

First: CCOc1ccccc1CNc1nc2[nH]c3c(c(=O)n2n1)CCC3
Second: CC1=NNc2nc3c(c(=O)n(Cc4ccccc4)c(=O)n3C)n2C1
The “Remain Activity” value of the first is higher: 75.44% for the first, 65.08% for the second.

Compared with `CC1=CC(C)(C)Nc2ccc(OC(=O)c3sc4cc([N+](=O)[O-])ccc4c3Cl)cc21`, `CC1=CC(C)(C)Nc2ccc(OC(=O)c3cccnc3)cc21` is higher in “Remain Activity” value: 56.93% for the first, 58.86% for the second.

Going from `O=C(Nc1ccc2[nH]c(=S)sc2c1)c1ccccc1` to `COc1cc(OC)cc(C(=O)Oc2ccc3c(c2)C(C)=CC(C)(C)N3)c1`, the “Remain Activity” value falls from 65.14% to 59.22%.

`O=C(Nc1ccc(F)cc1F)c1cc2n(n1)[C@H](C(F)(F)F)[C@H]1CCCC[C@H]1N2` was tested, and the “Remain Activity” value was 64.91%.
